Assay results: patent publication US8415469B2, “Compounds and methods for kinase modulation, and indications therefor” (Plexxikon Inc., priority 2005, dated 2013)

Tests used:
Format in all cases: biochemical
Stk6 = biological target: T1, Stk6 (Homo sapiens, UniProt O14965); assay: Z'-Lyte FRET kinase assay (Invitrogen), Stk6; details: read-out: IC50, activity toward kinase Stk6
T1 construct: purchased Invitrogen (Carlsbad, Calif.), screening service
T1 sequence (O14965 1-403): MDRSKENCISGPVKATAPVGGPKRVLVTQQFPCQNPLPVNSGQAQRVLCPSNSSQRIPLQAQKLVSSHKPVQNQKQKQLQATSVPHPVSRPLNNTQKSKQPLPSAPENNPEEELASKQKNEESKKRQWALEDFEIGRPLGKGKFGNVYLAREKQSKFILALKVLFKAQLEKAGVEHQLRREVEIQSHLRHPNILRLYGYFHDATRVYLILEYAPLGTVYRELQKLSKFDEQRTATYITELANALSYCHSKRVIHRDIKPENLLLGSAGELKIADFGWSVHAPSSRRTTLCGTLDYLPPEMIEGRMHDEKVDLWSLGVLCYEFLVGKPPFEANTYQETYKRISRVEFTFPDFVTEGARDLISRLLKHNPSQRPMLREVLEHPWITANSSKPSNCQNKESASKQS

EphB2 = biological target: T2, EphB2 (Homo sapiens, UniProt P29323); assay: Z'-Lyte FRET kinase assay (Invitrogen), EphB2; details: read-out: IC50, activity toward kinase EphB2
T2 construct: purchased Invitrogen (assay run by Invitrogen)
T2 sequence (P29323 19-1055): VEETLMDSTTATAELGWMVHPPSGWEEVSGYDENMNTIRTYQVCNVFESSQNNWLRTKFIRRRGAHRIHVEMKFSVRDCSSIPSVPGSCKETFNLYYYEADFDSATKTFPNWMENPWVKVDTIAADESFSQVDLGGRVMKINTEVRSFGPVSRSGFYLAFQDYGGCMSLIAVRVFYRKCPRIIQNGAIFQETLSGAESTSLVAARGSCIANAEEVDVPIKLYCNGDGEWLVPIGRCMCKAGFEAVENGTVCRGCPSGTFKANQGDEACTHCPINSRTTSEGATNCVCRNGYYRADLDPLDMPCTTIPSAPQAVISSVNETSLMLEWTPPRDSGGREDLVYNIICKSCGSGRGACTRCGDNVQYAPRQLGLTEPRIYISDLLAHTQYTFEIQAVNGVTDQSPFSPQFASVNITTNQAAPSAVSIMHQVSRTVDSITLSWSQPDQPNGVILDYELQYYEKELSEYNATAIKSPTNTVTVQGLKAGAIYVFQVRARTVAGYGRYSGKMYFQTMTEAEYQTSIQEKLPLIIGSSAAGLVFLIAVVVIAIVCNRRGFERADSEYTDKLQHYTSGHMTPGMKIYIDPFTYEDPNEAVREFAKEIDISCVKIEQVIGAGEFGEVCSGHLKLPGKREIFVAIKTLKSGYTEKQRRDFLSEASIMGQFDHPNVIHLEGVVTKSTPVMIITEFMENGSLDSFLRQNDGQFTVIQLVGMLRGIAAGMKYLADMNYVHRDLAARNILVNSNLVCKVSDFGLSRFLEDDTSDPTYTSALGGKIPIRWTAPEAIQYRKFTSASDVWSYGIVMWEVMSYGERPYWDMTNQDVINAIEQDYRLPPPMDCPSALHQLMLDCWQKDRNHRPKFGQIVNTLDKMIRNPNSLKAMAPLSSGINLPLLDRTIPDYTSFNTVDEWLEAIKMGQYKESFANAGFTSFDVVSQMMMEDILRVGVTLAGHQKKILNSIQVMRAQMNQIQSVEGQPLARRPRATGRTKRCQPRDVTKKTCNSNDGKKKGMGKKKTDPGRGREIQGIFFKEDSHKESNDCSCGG
Procedure, shortened: (§1)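 Read-out is the coumarin-to-fluorescein emission ratio, which rises when unphosphorylated peptide is cleaved by the development protease. Reactions contain serially diluted compound, 2 μM peptide and 10 μM ATP and run for 1 h at room temperature before 1 h development.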

Jnk1 = biological target: T3, Jnk1 (Homo sapiens, UniProt P45983); assay: AlphaScreen kinase assay, Jnk1; details: read-out: IC50, activity toward kinase Jnk1
T3 construct: purchased Upstate Biotechnology

PKC theta = biological target: T4, PKC theta (Homo sapiens, UniProt Q04759); assay: Z'-Lyte FRET kinase assay (Invitrogen), PKC theta; details: read-out: IC50, activity toward kinase PKC theta
T4 construct: purchased Invitrogen (Carlsbad, Calif.), screening service
Procedure, shortened: as §1

Src = biological target: T5, Src (Homo sapiens, UniProt P12931); assay: AlphaScreen kinase assay, Src; details: read-out: IC50, activity toward kinase Src
T5 construct: P1144. pET-N6 BI-PTP SRC V86-L536-X; made in house

Btk = biological target: T6, Btk (Homo sapiens, UniProt Q06187); assay: Z'-Lyte FRET kinase assay (Invitrogen), Btk; details: read-out: IC50, activity toward kinase Btk
T6 construct: purchased Invitrogen (assay run by Invitrogen)

Measured: IC50

T5 sequence (P12931 with tags, fused parts or gaps): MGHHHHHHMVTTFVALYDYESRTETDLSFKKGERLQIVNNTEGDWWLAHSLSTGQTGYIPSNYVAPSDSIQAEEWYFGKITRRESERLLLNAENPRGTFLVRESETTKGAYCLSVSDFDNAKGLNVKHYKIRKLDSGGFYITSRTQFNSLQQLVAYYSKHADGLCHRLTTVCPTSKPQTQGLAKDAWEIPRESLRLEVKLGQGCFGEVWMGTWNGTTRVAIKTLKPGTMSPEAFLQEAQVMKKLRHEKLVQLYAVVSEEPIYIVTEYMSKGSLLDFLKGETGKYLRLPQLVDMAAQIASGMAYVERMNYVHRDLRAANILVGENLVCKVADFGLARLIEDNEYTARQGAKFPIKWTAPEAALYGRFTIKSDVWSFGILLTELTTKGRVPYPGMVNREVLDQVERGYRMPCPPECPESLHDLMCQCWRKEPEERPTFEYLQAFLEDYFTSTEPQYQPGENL
T3 sequence (P45983 whole entry): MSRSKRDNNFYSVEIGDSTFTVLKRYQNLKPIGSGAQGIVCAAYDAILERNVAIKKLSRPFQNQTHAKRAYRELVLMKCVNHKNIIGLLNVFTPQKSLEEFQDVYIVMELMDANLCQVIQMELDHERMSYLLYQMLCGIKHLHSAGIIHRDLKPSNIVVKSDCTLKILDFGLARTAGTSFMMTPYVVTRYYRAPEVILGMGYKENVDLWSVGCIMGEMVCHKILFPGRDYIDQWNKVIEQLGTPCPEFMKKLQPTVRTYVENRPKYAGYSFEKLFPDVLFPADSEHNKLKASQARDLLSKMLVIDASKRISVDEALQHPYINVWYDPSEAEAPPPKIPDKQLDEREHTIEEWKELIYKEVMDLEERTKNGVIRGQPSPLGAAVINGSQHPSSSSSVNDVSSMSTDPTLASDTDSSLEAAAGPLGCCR
T4 sequence (Q04759 whole entry): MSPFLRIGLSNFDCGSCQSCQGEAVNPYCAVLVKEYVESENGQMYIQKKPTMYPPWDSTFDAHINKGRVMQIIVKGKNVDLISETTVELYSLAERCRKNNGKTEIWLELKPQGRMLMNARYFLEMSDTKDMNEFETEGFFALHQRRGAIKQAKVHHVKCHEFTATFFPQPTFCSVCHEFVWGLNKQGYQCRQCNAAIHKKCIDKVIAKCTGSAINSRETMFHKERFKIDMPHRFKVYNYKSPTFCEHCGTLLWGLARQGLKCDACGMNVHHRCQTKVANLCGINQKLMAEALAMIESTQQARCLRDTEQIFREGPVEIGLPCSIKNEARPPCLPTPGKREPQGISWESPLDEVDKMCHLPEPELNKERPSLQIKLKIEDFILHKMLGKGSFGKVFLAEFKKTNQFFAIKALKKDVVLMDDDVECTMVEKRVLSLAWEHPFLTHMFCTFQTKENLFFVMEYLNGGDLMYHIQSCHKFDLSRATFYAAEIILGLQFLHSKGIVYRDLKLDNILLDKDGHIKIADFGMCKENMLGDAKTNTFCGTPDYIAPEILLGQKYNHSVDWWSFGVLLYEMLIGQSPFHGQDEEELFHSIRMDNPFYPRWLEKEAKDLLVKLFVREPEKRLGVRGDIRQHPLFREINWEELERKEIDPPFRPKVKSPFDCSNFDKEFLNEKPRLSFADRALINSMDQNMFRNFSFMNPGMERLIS
T6 sequence (Q06187 whole entry): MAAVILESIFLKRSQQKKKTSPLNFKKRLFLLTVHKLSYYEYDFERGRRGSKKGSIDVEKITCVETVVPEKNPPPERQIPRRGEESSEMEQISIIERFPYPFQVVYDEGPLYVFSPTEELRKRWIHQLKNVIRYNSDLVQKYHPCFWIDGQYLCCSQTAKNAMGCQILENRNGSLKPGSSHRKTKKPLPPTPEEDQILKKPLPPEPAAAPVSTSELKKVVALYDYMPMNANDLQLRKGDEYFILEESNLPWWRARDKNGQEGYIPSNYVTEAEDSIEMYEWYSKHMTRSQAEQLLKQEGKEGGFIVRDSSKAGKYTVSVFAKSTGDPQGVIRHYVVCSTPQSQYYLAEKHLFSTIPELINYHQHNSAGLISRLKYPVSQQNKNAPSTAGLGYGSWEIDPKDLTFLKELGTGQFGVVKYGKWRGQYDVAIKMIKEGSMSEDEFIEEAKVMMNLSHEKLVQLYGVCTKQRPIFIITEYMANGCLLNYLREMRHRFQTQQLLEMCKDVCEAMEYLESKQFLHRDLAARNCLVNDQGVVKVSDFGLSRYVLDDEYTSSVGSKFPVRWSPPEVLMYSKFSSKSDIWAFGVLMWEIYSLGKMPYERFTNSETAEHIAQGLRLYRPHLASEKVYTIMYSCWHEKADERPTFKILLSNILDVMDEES

CC(=O)Nc1cccc(-c2cnc3[nH]cc(C(=O)c4cc(O)ccc4F)c3c2)c1 [Compound P-0001]
not listed: Btk
≤ 10 µM: all other assays above

Nc1cccc(-c2cnc3[nH]cc(C(=O)c4cccc(O)c4)c3c2)c1 [Compound P-0003]
not listed: Btk
≤ 10 µM: all other assays above

Cc1c(O)cccc1C(=O)c1c[nH]c2ncc(-c3cccnc3)cc12 [Compound P-0006, (3-Hydroxy-2-methyl-phenyl)-(5-pyridin-3-yl-1H-pyrrolo[2,3b]pyridin-3-yl)-methanone]
not listed: Stk6
≤ 10 µM: all other assays above

CS(=O)(=O)c1cccc(-c2cnc3[nH]cc(C(=O)c4cc(O)ccc4F)c3c2)c1 [Compound P-0008, (2-Fluoro-5-hydroxy-phenyl)-[5-(3-methanesulfonyl-phenyl)-1H-pyrrolo[2,3-b]pyridin-3-yl]-methanone]
≤ 10 µM: Stk6 | Jnk1 | PKC theta | Src

O=C(c1cccc(O)c1)c1c[nH]c2ncccc12 [Compound P-0011]
≤ 10 µM: Stk6 | EphB2 | PKC theta | Btk

O=C(c1cccc(O)c1)c1c[nH]c2nccc(Cl)c12 [Compound P-0012]
≤ 10 µM: EphB2 | PKC theta | Btk

NC(=O)c1ccc(-c2ccnc3[nH]cc(C(=O)c4cc(F)ccc4F)c23)cc1 [Compound P-0013]
≤ 10 µM: Stk6 | EphB2 | PKC theta | Btk

NC(=O)c1ccc(-c2ccnc3[nH]cc(C(=O)c4ccccc4F)c23)cc1 [Compound P-0014]
≤ 10 µM: Stk6 | EphB2 | PKC theta | Btk

Cc1ccccc1C(=O)c1c[nH]c2nccc(-c3ccc(C(N)=O)cc3)c12 [Compound P-0017]
≤ 10 µM: EphB2 | PKC theta | Btk | Src

O=C(c1cccc(O)c1)c1c[nH]c2ncc(Br)cc12 [Compound P-0019]
≤ 10 µM: EphB2 | PKC theta | Btk

CS(=O)(=O)c1cccc(-c2cnc3[nH]cc(C(O)c4c(F)ccc(F)c4F)c3c2)c1 (centres unmarked) [Compound P-0020]
≤ 10 µM: Stk6 | EphB2 | PKC theta | Btk

O=C(c1ccc(O)cc1Cl)c1c[nH]c2ncccc12 [Compound P-0021]
not listed: Stk6
≤ 10 µM: all other assays above

Nc1cccc(-c2ccnc3[nH]cc(C(=O)c4ccccc4F)c23)c1 [Compound P-0022]
≤ 10 µM: Stk6 | EphB2 | PKC theta | Btk

O=C(c1ccc(O)cc1)c1c[nH]c2ncc(-c3cccs3)cc12 [Compound P-0024, (4-Hydroxy-phenyl)-(5-thiophen-2-yl-1H-pyrrolo[2,3-b]pyridin-3-yl)-methanone]
≤ 10 µM: PKC theta | Btk

O=C(c1cccc(O)c1)c1c[nH]c2ncc(Nc3ccccc3)cc12 [Compound P-0025]
not listed: Stk6
≤ 10 µM: all other assays above

CS(=O)(=O)c1cccc(-c2cnc3[nH]cc(C(=O)c4cccc(O)c4F)c3c2)c1 [Compound P-0026, (2-Fluoro-3-hydroxy-phenyl)-[5-(3-methanesulfonylphenyl)1H-pyrrolo[2,3-b]pyridin-3-yl]-methanone]
≤ 10 µM: Jnk1 | PKC theta | Btk | Src

Cc1ccccc1C(=O)c1c[nH]c2nccc(-c3cccc(N)c3)c12 [Compound P-0044]
≤ 10 µM: Stk6 | EphB2 | PKC theta | Btk

Nc1cccc(-c2ccnc3[nH]cc(C(=O)c4cc(F)ccc4F)c23)c1 [Compound P-0046]
≤ 10 µM: Stk6 | PKC theta | Btk

NC(=O)c1cccc(-c2ccnc3[nH]cc(C(=O)c4cc(F)ccc4F)c23)c1 [Compound P-0049]
≤ 10 µM: Stk6 | PKC theta | Btk

O=C(c1ccccc1F)c1c[nH]c2nccc(-c3ccsc3)c12 [Compound P-0051]
≤ 10 µM: Stk6 | PKC theta | Btk

Cc1c(O)cccc1C(=O)c1c[nH]c2ncc(Br)cc12 [Compound P-0055, (5-Bromo-1H-pyrrolo[2,3-b]pyridin-3-yl)-(3-hydroxy-2-methyl-phenyl)-methanone]
≤ 10 µM: EphB2 | PKC theta | Btk | Src

CS(=O)(=O)Nc1cccc(-c2ccnc3[nH]cc(C(=O)c4cc(F)ccc4F)c23)c1 [Compound P-0060]
≤ 10 µM: Stk6 | PKC theta | Btk

O=C(c1cc(F)ccc1F)c1c[nH]c2nccc(-c3cccnc3)c12 [Compound P-0063]
≤ 10 µM: Stk6 | PKC theta | Btk

CC(=O)Nc1cccc(-c2ccnc3[nH]cc(C(=O)c4ccccc4F)c23)c1 [Compound P-0070]
≤ 10 µM: Stk6 | EphB2 | PKC theta | Btk

Cc1ccccc1C(=O)c1c[nH]c2nccc(-c3cccc(NS(C)(=O)=O)c3)c12 [Compound P-0109]
≤ 10 µM: EphB2 | PKC theta | Btk
